US9073858B2, “Methods of targeted drug development” (priority 2010, dated 2015)
pIC50: −log10 of the molar value. Read-outs that look alike come from different tables or passages of the source.

What was measured:
EGFR = target: T1, EGFR (Homo sapiens, UniProt P00533); test: EGFR in-cell Western (ICW) screening protocol; assay type: cell-based; parameters: unit not given here; settings: for ICW Screen: initial screen
T1 construct: endogenous in cells; host or cells: A431 cells (ATCC CRL-1555)
Summary of the method: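 Serum-starved cells treated with compound 4 h at 37 °C, then stimulated with EGF (20 or 0 ng/ml solution added) in its continued presence. In-cell Western on fixed cells: phospho-EGFR (800 channel) normalised to total EGFR (700 channel), % inhibition calculated against EGF-stimulated and unstimulated no-compound wells.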

MDBK line = test: MTT Cell Proliferation Assay, MDBK line; assay type: cell-based, bovine
Summary of the method: (§1)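 Cells plated overnight, then exposed 3 days at 37 °C, 5% CO2 to compound in growth medium with 0.5% FBS and 0.5% DMSO final (0.5% DMSO as control).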

[1] = test system: epithelial carcinoma A431 cell line; test: MTT Cell Proliferation Assay, A431 cell line; assay type: cell-based; settings: for MTT-72 h A431/MDBK (ratio) / MTT (10 Point follow-up) ratio: value in brackets; for MTT-72 h A431/MDBK (ratio): numerically MDBK value over A431 value; for MTT (10 Point follow-up) ratio: numerically MDBK over A431
Summary of the method: as §1

[2] = Bos taurus, MDBK, 72 h, second value of A431/MDBK pair, read-out: MTT-72 h MDBK
[3] = Homo sapiens, A-431, 72 h, 72 h, first value of A431/MDBK pair, read-out: MTT-72 h A431
[4] = Bos taurus, MDBK, 10 point follow-up, second value of pair, read-out: MTT (10 Point follow-up) MDBK
[5] = Homo sapiens, A-431, 10 point follow-up, first value of pair, read-out: MTT (10 Point follow-up) A431

T1 sequence (P00533 25-1210): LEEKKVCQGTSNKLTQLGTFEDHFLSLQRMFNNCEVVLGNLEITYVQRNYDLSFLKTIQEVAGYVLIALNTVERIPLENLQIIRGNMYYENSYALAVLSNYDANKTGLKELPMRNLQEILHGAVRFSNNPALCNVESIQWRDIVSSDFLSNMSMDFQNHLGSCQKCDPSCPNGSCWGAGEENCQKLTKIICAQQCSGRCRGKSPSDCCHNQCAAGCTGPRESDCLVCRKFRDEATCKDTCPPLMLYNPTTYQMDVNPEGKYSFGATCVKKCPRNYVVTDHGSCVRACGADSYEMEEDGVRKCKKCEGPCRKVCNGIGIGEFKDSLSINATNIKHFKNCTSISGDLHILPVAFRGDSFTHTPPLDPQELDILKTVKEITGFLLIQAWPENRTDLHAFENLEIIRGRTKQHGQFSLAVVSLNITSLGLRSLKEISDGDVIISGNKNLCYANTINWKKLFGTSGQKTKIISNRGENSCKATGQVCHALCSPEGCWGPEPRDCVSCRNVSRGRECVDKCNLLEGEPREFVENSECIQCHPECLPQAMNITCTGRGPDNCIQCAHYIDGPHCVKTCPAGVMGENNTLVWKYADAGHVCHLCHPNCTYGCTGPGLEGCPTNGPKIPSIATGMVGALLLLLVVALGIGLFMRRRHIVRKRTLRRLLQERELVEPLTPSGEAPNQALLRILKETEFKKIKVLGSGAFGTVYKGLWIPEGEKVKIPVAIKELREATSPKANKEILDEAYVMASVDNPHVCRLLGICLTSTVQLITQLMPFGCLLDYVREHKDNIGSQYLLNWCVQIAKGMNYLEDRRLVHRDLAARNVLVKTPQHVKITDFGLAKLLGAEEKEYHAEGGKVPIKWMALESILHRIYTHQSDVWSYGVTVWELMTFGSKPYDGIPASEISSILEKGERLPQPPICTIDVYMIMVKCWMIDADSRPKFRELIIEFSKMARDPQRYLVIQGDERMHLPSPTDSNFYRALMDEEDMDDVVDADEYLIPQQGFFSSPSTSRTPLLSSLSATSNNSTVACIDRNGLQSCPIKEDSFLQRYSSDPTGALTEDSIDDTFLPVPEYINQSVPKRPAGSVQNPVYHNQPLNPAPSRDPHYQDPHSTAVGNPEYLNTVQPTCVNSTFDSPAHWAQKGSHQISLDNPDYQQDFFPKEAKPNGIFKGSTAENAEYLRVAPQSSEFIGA

| SMILES | ICW Screen (EGFR) | ICW Re-Test (EGFR) | pIC50 (MDBK line; [2]) | MTT-72 h A431/MDBK (ratio) ([1]; 72 h) | pIC50 [1, 3] | pIC50 (MDBK line; [4]) | pIC50 [1, 5] | MTT (10 Point follow-up) ratio ([1]; 10 point follow-up) | pIC50 (MDBK line; 10 point follow-up, second value of pair, read-out: MTT (10 Point follow-up) MDBK) | pIC50 ([1]; 10 point follow-up, first value of pair, read-out: MTT (10 Point follow-up) A431) | pIC50 (MDBK line; 72 h, second value of A431/MDBK pair, read-out: MTT-72 h MDBK) | pIC50 ([1]; 72 h, first value of A431/MDBK pair, read-out: MTT-72 h A431) |
| --- | --- | --- | --- | --- | --- | --- | --- | --- | --- | --- | --- | --- |
| Cc1cccc(NC(c2cccc(C)n2)c2ccc3ccc(C)nc3c2O)n1 (stereo not drawn) [compound 10976] | 33.22 | 21.78 | 4.71 | 0.78 | 4.60 | – | – | – | – | – | – | – |
| Cc1cccc(NC(c2ccc(C(F)(F)F)cc2)c2ccc3cccnc3c2O)n1 (stereo not drawn) [compound 10628] | 30.02 | – | 6.12 | – | 6.49 | 6.16 | 6.51 | – | – | – | – | – |
| CCOc1ccc(C(Nc2ccccn2)c2ccc3cccnc3c2O)cc1O (stereo not drawn) [compound 10013] | 61.2 | 62.77 | 5.19 | 1.80 | 5.45 | 5.20 | 5.45 | 1.79 | – | – | – | – |
| COc1ccc(C)cc1NC(c1ccc(F)cc1)c1ccc2cccnc2c1O (stereo not drawn) [compound 11014] | 47.81 | 32.53 | 5.36 | 0.92 | 5.33 | – | – | – | – | – | – | – |
| Oc1c(C(Nc2ccccn2)c2ccsc2)ccc2cccnc12 (stereo not drawn) [compound 10957] | 49.8 | 39.03 | 4.85 | 0.80 | 4.76 | – | – | – | – | – | – | – |
| Cc1ccc(C(Nc2cccc(C)n2)c2ccc3cccnc3c2O)cc1 (stereo not drawn) [compound 10054] | 35.84 | – | 5.26 | 1.00 | 5.26 | – | – | – | – | – | – | – |
| Cc1ccc2ccc(C(Nc3ccccn3)c3ccc(O)cc3)c(O)c2n1 (stereo not drawn) [compound 1997] | 29 | – | 4.61 | 0.52 | 4.33 | – | – | – | – | – | – | – |
| CCOc1cc(C(NC(C)=O)c2cc([N+](=O)[O-])c3cccnc3c2O)ccc1O (stereo not drawn) [compound 10951] | 38.95 | 31.33 | 5.26 | 0.97 | 5.25 | – | – | – | – | – | – | – |
| CCOc1ccc(C(Nc2ccccn2)c2cc(Cl)c3cccnc3c2O)cc1 (stereo not drawn) [compound 10953] | 30.86 | 41.04 | 5.25 | 1.03 | 5.27 | – | – | – | – | – | – | – |
| Oc1c(C(Nc2cccnc2)c2ccc(C(F)(F)F)cc2)ccc2cccnc12 (stereo not drawn) [compound 10942] | 56.15 | 95.43 | 4.44 | 1.09 | 4.48 | – | – | – | – | – | – | – |
| Oc1c(C(Nc2nccs2)c2cccs2)ccc2cccnc12 (stereo not drawn) [compound 10602] | 57.72 | 43.06 | 5.64 | 0.65 | 5.45 | 5.63 | 5.48 | 0.71 | – | – | – | – |
| Cc1ccc2ccc(C(Nc3ccccn3)c3sccc3C)c(O)c2n1 (stereo not drawn) [compound 10958] | 60.73 | 70.92 | 5.01 | 0.65 | 4.83 | – | – | – | – | – | – | – |
| CON1CCN(C(c2cccnc2)c2ccc3cccnc3c2O)CC1 (stereo not drawn) [compound 10551] | 29.14 | – | 4.94 | 0.57 | 4.70 | – | – | – | – | – | – | – |
| COc1ccc(C(Nc2ccccn2)c2ccc3cccnc3c2O)cc1 (stereo not drawn) [compound 10524] | 38.96 | 30.44 | 5.29 | 0.95 | 5.27 | – | – | – | – | – | – | – |
| Oc1c(C(Nc2cccc(F)c2)c2ccccn2)ccc2cccnc12 (stereo not drawn) [compound 11105] | 48.25 | 17.88 | 5.15 | 1.29 | 5.26 | 5.19 | 5.33 | 1.38 | – | – | – | – |
| Oc1c(C(Nc2ccccn2)c2ccc(Cl)cc2Cl)ccc2cccnc12 (stereo not drawn) [compound 10484] | 26.3 | – | 6.07 | 2.70 | 6.49 | – | – | 2.12 | 6.17 | 6.52 | – | – |
| Oc1c(C(Nc2cccnc2)c2cccs2)ccc2cccnc12 (stereo not drawn) [compound 10315] | 80.77 | 92.46 | 5.24 | 1.26 | 5.34 | 6.11 | 6.16 | 1.12 | – | – | – | – |
| CCOc1ccc(C(Nc2ccccn2)c2ccc3ccc(C)nc3c2O)cc1OC (stereo not drawn) [compound 1976] | 26.91 | – | 4.89 | 0.50 | 4.58 | – | – | – | – | – | – | – |
| O=C(O)c1ccc(C(Nc2ccccn2)c2cc(Cl)c3cccnc3c2O)cc1 (stereo not drawn) [compound 10093] | 25.13 | – | 4.67 | 0.68 | 4.50 | – | – | – | – | – | – | – |
| Oc1cc2cccnc2cc1C(Nc1ccccn1)c1cccs1 (stereo not drawn) [compound 10938] | 40.36 | 24.99 | 4.66 | 0.88 | 4.60 | – | – | – | – | – | – | – |
| Cc1ccc2ccc(C(Nc3ccccn3)c3ccc(F)cc3)c(O)c2n1 (stereo not drawn) [compound 10045] | 27.22 | – | 5.01 | 0.73 | 4.87 | – | – | – | – | – | – | – |
| CCCC(=O)NC(c1ccc(OC)c(OC)c1)c1cc(Cl)c2cccnc2c1O (stereo not drawn) [compound 10949] | 26.99 | – | 5.24 | 1.03 | 5.25 | – | – | – | – | – | – | – |
| CCC(=O)NC(c1cccs1)c1cc([N+](=O)[O-])c2cccnc2c1O (stereo not drawn) [compound 10960] | 32.5 | 91.3 | 5.99 | 1.52 | 6.17 | 6.01 | 6.19 | 1.49 | – | – | – | – |
| CCOc1ccc(C(Nc2ccccn2)c2cc(Cl)c3cccnc3c2O)cc1 (stereo not drawn) [compound 10101] | 44.01 | 7.53 | – | 1.66 | – | 5.59 | 5.54 | 0.90 | – | – | 5.02 | 5.24 |
| Cc1ccnc(NC(c2ccncc2)c2ccc3cccnc3c2O)c1 (stereo not drawn) [compound 10968] | 27 | – | 5.11 | 0.71 | 4.95 | – | – | – | – | – | – | – |
| CN1CCN(C(c2ccccn2)c2ccc3cccnc3c2O)CC1 (stereo not drawn) [compound 10548] | 31.03 | – | 5.09 | 0.89 | 5.04 | – | – | – | – | – | – | – |
| Cc1ccnc(NC(c2cccc(OCc3ccccc3)c2)c2ccc3cccnc3c2O)c1 (stereo not drawn) [compound 10053] | 32.85 | – | – | – | – | 6.36 | 5.40 | 0.11 | – | – | – | – |
| COc1ccc(C(Nc2cc(C)ccn2)c2ccc3cccnc3c2O)cc1OC (stereo not drawn) [compound 1969] | 29.61 | 39.58 | 4.87 | 0.90 | 4.82 | – | – | – | – | – | – | – |
